In ChEMBL document CHEMBL3351909, “In vitro and in vivo characterization of a benzofuran derivative, a potential anticancer agent, as a novel Aurora B kinase inhibitor” (Eur J Med Chem, 2015):
Activity calls are given as the source filed them. No cut-off for these calls is given here.

How the values were obtained:
[1] = molecular target: RAC-alpha serine/threonine-protein kinase (Homo sapiens, UniProt P31749); experiment: Inhibition of recombinant AKT1 (unknown origin) after 60 mins by z'-lyte kinase assay
Chain of RAC-alpha serine/threonine-protein kinase (P31749 whole entry): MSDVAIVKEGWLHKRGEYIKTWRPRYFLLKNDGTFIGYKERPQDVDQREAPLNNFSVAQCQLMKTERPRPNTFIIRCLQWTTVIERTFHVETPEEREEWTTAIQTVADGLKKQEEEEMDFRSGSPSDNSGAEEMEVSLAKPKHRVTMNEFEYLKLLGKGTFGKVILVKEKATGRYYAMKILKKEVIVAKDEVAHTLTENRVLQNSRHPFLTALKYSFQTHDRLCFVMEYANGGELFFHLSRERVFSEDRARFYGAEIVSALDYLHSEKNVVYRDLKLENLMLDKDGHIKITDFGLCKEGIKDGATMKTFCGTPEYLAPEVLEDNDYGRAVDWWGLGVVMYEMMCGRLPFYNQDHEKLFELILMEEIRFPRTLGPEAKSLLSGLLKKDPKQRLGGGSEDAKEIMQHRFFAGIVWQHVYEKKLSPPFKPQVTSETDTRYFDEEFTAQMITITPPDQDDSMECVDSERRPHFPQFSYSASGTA

Aurora kinase B [2] = molecular target: T1, Aurora kinase B (Homo sapiens, UniProt Q96GD4); experiment: Inhibition of AURKB in human HepG2 cells assessed as reduction in Aurora B expression expression at 5 to 20 uM after 48 hrs by Western blotting analysis; type: cell-based
T1 sequence (Q96GD4 whole entry): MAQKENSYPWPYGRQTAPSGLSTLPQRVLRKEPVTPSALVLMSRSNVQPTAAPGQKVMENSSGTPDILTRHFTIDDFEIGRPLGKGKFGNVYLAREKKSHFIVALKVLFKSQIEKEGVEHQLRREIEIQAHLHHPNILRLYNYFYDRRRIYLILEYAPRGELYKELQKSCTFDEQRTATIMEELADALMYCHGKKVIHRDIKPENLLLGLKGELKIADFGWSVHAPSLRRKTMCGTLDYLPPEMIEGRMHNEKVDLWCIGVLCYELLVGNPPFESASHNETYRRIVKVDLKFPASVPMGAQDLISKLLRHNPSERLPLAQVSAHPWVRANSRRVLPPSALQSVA

[3] = Cytotoxicity against human SKOV3 cells after 96 hrs by CCK-8 assay; type: functional, cell-based; details: SK-OV-3, 96 h
CNE = experiment: Cytotoxicity against human CNE cells after 96 hrs by CCK-8 assay; type: functional, cell-based
[4] = molecular target: Cyclin-dependent kinase 1/cyclin B1 (Homo sapiens, UniProt P06493); experiment: Inhibition of recombinant CDK1/cyclin B (unknown origin) after 60 mins by z'-lyte kinase assay; type: protein-complex assay
Chain of Cyclin-dependent kinase 1/cyclin B1 (P06493 whole entry): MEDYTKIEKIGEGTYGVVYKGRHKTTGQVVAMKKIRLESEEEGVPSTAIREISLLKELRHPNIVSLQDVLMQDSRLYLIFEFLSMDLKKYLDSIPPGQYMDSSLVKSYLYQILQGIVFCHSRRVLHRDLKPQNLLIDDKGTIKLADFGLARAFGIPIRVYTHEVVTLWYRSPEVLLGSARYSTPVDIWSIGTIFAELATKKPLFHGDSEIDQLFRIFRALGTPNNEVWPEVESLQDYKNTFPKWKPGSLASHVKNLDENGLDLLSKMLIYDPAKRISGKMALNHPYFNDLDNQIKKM
Chain of Cyclin-dependent kinase 1/cyclin B1 (P14635 whole entry, further chain): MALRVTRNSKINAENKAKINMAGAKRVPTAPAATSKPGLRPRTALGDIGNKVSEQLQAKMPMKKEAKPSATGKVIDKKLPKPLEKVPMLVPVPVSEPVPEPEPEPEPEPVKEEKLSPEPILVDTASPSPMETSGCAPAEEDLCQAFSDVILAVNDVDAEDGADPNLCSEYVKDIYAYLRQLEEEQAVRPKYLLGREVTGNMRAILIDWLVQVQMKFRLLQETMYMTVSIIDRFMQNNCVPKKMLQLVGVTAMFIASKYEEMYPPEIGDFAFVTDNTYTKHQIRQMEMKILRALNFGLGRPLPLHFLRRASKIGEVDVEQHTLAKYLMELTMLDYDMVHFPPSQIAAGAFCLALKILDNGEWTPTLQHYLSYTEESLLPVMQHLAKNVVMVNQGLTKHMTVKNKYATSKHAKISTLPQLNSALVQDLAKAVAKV

[5] = Cytotoxicity against human Hep3B cells after 96 hrs by CCK-8 assay; type: functional, cell-based, Hep 3B2
[6] = Cytotoxicity against human PC3 cells after 96 hrs by CCK-8 assay; type: functional, cell-based; details: PC-3, 96 h
Aurora kinase A [7] = molecular target: T2, Aurora kinase A (Homo sapiens, UniProt O14965); experiment: Inhibition of recombinant AURKA (unknown origin) after 60 mins by z'-lyte kinase assay
T2 sequence (O14965 whole entry): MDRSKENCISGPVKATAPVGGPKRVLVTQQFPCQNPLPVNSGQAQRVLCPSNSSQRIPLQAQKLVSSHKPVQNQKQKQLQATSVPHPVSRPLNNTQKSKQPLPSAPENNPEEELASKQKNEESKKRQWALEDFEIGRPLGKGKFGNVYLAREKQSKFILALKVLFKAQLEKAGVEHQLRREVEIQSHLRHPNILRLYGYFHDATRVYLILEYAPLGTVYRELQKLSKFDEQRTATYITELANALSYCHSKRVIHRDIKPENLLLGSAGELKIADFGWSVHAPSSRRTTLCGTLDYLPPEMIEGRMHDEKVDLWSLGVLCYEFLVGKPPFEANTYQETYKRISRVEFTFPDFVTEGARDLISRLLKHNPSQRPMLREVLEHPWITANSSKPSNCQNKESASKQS

SW-620 [8] = experiment: Inhibition of colony formation in human SW620 cells after 96 hrs by crystal violet staining-based assay; type: functional, cell-based
[9] = molecular target: Platelet-derived growth factor receptor alpha (Homo sapiens, UniProt P16234); experiment: Inhibition of recombinant PDGFR alpha (unknown origin) after 60 mins by z'-lyte kinase assay
[10] = molecular target: Vascular endothelial growth factor receptor 2 (Homo sapiens, UniProt P35968); experiment: Inhibition of recombinant KDR (unknown origin) after 60 mins by z'-lyte kinase assay
Chain of Vascular endothelial growth factor receptor 2 (P35968 whole entry): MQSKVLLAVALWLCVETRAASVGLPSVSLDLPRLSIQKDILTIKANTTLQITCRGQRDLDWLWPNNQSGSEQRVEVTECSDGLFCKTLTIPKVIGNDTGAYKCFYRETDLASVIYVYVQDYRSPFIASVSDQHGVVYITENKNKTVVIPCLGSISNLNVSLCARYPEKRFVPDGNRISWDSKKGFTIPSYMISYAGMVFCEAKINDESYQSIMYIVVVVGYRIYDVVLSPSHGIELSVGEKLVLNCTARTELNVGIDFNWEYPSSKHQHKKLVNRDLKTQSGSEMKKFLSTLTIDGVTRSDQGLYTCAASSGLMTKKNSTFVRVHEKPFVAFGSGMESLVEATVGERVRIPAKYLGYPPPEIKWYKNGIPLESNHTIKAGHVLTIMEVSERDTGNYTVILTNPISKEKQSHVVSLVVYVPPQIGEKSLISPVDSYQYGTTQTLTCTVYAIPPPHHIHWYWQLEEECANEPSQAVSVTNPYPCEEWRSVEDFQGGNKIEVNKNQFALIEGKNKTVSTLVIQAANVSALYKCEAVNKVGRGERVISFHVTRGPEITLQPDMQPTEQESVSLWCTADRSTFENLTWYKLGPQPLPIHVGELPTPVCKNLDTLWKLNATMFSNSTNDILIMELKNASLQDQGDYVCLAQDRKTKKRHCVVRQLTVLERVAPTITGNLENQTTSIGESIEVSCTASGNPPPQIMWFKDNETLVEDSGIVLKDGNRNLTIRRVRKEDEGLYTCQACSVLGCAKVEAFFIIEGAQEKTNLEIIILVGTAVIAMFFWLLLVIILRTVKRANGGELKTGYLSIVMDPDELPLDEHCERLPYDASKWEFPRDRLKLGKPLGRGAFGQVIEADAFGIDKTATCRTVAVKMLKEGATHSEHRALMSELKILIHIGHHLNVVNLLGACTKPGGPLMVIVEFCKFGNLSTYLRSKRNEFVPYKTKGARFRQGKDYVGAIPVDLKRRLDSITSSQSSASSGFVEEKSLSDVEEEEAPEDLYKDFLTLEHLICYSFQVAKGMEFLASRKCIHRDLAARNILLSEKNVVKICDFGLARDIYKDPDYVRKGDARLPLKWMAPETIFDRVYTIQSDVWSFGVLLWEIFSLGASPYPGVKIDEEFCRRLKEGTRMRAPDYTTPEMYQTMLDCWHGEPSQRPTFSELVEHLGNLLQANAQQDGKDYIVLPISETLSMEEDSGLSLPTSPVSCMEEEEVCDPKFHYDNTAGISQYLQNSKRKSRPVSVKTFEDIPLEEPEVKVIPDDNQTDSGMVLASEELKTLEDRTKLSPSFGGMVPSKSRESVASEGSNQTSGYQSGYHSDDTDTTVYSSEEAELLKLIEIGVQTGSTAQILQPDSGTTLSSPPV

HepG2 [11] = experiment: Inhibition of colony formation in human HepG2 cells after 96 hrs by crystal violet staining-based assay; type: functional, cell-based
Aurora kinase A [12] = molecular target: T2, Aurora kinase A; experiment: Binding affinity to AURKA (unknown origin)
[13] = molecular target: Serine/threonine-protein kinase Nek1 (Homo sapiens, UniProt Q96PY6); experiment: Inhibition of recombinant NEK1 (unknown origin) after 60 mins by z'-lyte kinase assay
Chain of Serine/threonine-protein kinase Nek1 (Q96PY6 whole entry): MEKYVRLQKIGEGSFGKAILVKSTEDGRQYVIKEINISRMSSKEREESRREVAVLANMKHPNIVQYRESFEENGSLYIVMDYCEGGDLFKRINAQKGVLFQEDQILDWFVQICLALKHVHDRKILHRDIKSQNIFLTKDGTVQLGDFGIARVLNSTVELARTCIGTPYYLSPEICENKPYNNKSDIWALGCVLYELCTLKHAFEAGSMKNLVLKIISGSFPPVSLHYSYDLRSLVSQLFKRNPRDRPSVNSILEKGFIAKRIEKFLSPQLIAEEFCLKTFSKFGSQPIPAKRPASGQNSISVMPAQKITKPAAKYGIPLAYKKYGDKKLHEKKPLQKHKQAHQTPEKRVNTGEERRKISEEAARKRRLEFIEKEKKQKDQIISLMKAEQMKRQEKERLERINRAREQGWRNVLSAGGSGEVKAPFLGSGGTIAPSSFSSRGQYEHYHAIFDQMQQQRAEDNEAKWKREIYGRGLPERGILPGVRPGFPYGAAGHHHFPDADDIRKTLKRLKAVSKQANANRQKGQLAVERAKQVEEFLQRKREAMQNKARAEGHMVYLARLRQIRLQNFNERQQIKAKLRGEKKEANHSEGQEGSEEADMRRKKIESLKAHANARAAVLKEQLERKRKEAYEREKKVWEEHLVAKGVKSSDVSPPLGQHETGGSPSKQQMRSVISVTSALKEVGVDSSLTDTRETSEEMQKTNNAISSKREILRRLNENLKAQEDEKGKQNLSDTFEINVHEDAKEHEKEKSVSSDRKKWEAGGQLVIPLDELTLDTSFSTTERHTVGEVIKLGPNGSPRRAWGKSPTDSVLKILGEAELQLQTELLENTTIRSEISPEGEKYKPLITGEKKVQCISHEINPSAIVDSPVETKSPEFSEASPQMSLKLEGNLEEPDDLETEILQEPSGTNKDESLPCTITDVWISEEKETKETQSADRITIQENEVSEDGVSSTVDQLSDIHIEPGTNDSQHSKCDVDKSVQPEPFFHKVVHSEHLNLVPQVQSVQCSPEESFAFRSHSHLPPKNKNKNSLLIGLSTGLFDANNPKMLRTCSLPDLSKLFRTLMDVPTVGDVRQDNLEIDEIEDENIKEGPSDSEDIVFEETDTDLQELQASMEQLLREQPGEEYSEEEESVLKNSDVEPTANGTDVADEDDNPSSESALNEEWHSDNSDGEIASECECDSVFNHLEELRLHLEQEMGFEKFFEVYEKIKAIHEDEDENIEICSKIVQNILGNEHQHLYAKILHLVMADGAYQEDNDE

[14] = Antitumor activity against human QGY7401 cells xenografted in nude mouse assessed as inhibition of tumor growth at 20 mg/kg, ip qd administered for 14 days measured on day 18 relative to control; type: functional; details: route intraperitoneal, read-out: TGI
Aurora kinase B [15] = molecular target: T1, Aurora kinase B; experiment: Inhibition of AURKB in human HeLa cells assessed as reduction in Aurora B expression at 5 to 20 uM after 48 hrs by Western blotting analysis; type: cell-based
HeLa = experiment: Inhibition of colony formation in human HeLa cells after 96 hrs by crystal violet staining-based assay; type: functional, cell-based
Aurora kinase B [16] = molecular target: T1, Aurora kinase B; experiment: Inhibition of AURKB in human HeLa cells assessed as reduction in histone H3 phosphorylation at 5 to 20 uM after 48 hrs by Western blotting analysis; type: cell-based
[17] = Cytotoxicity against human FOCUS cells after 96 hrs by CCK-8 assay; type: functional, cell-based
[18] = molecular target: AMP-activated protein kinase, AMPK; experiment: Inhibition of recombinant AMPK A1/B1/G1 (unknown origin) after 60 mins by z'-lyte kinase assay; type: protein-complex assay, Homo sapiens
MDA-MB-231 = experiment: Cytotoxicity against human MDA-MB-231 cells after 96 hrs by CCK-8 assay; type: functional, cell-based; details: MDA-MB-231, 96 h
SW-620 [19] = experiment: Growth inhibition of human SW620 cells at 5 to 20 uM after 96 hrs by CCK-8 assay; type: functional, cell-based
[20] = Antitumor activity against human QGY7401 cells xenografted in nude mouse assessed as reduction in tumor weight at 20 mg/kg, ip qd administered for 14 days measured on day 18 (reference value: 2.24 +/- 0.20 g); type: functional; details: route intraperitoneal
Aurora kinase C = Aurora kinase C (Homo sapiens, UniProt Q9UQB9); experiment: Inhibition of recombinant AURKC (unknown origin) after 60 mins by z'-lyte kinase assay
Chain of Aurora kinase C (Q9UQB9 whole entry): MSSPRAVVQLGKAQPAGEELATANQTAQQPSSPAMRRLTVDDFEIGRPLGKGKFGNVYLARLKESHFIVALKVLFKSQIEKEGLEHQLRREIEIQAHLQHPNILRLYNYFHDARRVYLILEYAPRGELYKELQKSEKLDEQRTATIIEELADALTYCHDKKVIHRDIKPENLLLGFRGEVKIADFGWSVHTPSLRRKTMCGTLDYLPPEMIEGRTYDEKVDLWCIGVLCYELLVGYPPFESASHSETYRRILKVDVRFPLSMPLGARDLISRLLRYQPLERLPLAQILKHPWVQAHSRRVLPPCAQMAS

HepG2 [21] = experiment: Inhibition of colony formation in human HepG2 cells at 5 uM after 96 hrs by crystal violet staining-based assay; type: functional, cell-based
HT-29 = experiment: Cytotoxicity against human HT-29 cells after 96 hrs by CCK-8 assay; type: functional, cell-based; details: HT-29, 96 h
HepG2 [22] = experiment: Cell cycle arrest in human HepG2 cells assessed as reduction in G1 phase at 20 uM after 48 hrs by flow cytometry relative to control; type: functional, cell-based
[23] = Cytotoxicity against human HuH7 cells after 96 hrs by CCK-8 assay; type: functional, cell-based; details: Huh-7, 96 h
[24] = Cytotoxicity against human SKHEP1 cells after 96 hrs by CCK-8 assay; type: functional, cell-based; details: SK-HEP1, 96 h
[25] = Antitumor activity against human QGY7401 cells xenografted in nude mouse assessed as inhibition of tumor growth at 10 mg/kg, ip qd administered for 14 days measured on day 18 relative to control; type: functional; details: route intraperitoneal, read-out: TGI
Aurora kinase B [26] = molecular target: T1, Aurora kinase B; experiment: Inhibition of AURKB in human SW620 cells assessed as reduction in histone H3 expression at 5 to 20 uM after 48 hrs by Western blotting analysis; type: cell-based; details: SW-620
[27] = Cytotoxicity against human HCT116 cells after 96 hrs by CCK-8 assay; type: functional, cell-based; details: HCT-116, 96 h
[28] = Antitumor activity against human QGY7401 cells xenografted in nude mouse assessed as reduction in body weight at 10 mg/kg, ip qd administered for 14 days measured on day 18 (reference value: 24.13 +/- 2.18 g); type: functional; details: route intraperitoneal
SW-620 [29] = experiment: Inhibition of colony formation in human SW620 cells at 5 uM after 96 hrs by crystal violet staining-based assay; type: functional, cell-based

## O=C1/C(=C\c2ccc(O)c(O)c2)Oc2ccccc21
[1]
  IC50: 38.6 µM
Aurora kinase B [2]
  inhibition: Active
[3]
  IC50: 26.1 µM
CNE
  IC50: 45.5 µM
[4]
  IC50: 37.4 µM
[5]
  IC50: 28.7 µM
[6]
  IC50: > 50 µM
Aurora kinase A [7]
  IC50: 1.34 µM
SW-620 [8]
  inhibition: Dose-dependent effect
[9]
  IC50: 4.04 µM
[10]
  IC50: 5.96 µM
HepG2 [11]
  inhibition: Dose-dependent effect
Aurora kinase A [12]
  Kd: 12.9 µM
[13]
  IC50: 11.5 µM
[14]
  inhibition in vivo at 20 mg/kg: 48.1%
Aurora kinase B [15]
  inhibition: Active
HeLa
  inhibition: Dose-dependent effect
Aurora kinase B [16]
  inhibition: Active
[17]
  IC50: 20.7 µM
[18]
  IC50: 19.5 µM
MDA-MB-231
  IC50: > 50 µM
SW-620 [19]
  growth inhibition (GI): Active
[20]
  Activity: 1.44 g
Aurora kinase C
  IC50: 4.75 µM
HepG2 [21]
  inhibition: Active
HT-29
  IC50: 34.9 µM
HepG2 [22]
  Activity: Active
[23]
  IC50: 21.1 µM
[24]
  IC50: 41.9 µM
[25]
  inhibition in vivo at 10 mg/kg: 39.2%
Aurora kinase B [26]
  inhibition: Active
[27]
  IC50: 13.4 µM
[28]
  Activity: 21.87 g
SW-620 [29]
  inhibition: Active
